This is an account of results in patent US10646496B2, “Joint application of statin and adrenocortical hormone for treating chronic subdural hematoma” (priority 2016, dated 2020).

Where “and” joins values, the source holds several entries; their conditions need not be identical. Equal entries are not always repeated. Where two headings read alike, the source gives them in different places.

For data set [1], the system named is VEGF, TGF-β, MMP-9 and Ang-1/2. Briefly: Rat subdural hematoma model: factor expression in hematoma capsule/cavity (real-time PCR, ELISA). In kind it is in vivo. The source says:
In FIG. 1 to FIG. 9, “#” denotes a statistically significant difference in the small-dose group and the large-dose group as compared with the control group; and “*” denotes a statistically significant difference between the small-dose group and the large-dose group.
Background: In qPCR the cycle at which signal appears reflects the starting amount.

The test system of data set [2] is chronic subdural hematoma. The following applies: for Hematoma amount in the fourth week, average value: treatment for one month, conservatively successful patients.
Data set [3] has as its system VEGF, TGF-β, MMP-9 and Ang-1/2. To be noted: small dose of atorvastatin, recent animal experiments; cited from earlier work.
Setting [4] is: large-dose 5 mg/kg/day, 28 rats.
The mark [5] stands for this setting: small-dose 3 mg/kg/day, 30 rats.
The mark [6] stands for this setting: large-dose group 8 mg/kg/day oral, 2 days.
Setting [7] is: large-dose group 8 mg/kg/day, 7 days after the operation.
[8] abbreviates: small-dose group 3 mg/kg/day oral, 2 days.
Setting [9] is: small-dose group 3 mg/kg/day, 7 days after the operation, vs control and large-dose group.

For `CC(C)c1c(C(=O)Nc2ccccc2)c(-c2ccccc2)c(-c2ccc(F)cc2)n1CC[C@@H](O)C[C@@H](O)CC(=O)O` [atorvastatin], in the data set with subcutaneous hematoma (setting [4]), the Injury infection was determined as 4 and the “Rats died in the treatment” value is 7. Moreover, in the data set with subcutaneous hematoma (large-dose group compared with small-dose atorvastatin group), the death rate result is “significantly improved”. Also, the hormone-caused complications entry with subcutaneous hematoma (rat, in vivo) is “significantly increased”. In the data set with subcutaneous hematoma (rat, in vivo, 3 mg/kg/day), this molecule gave a Poor condition of 3. Further, the Poor condition with subcutaneous hematoma (rat, in vivo, 5 mg/kg/day) is listed as 6. In the data set on subcutaneous hematoma (setting [5]), the Injury infection is 1 and the “Rats died in the treatment” value is recorded as 2. For the same molecule, in data set [1] (setting [6]), the “expression of MMP-9” value is “significantly higher”, the “expression of TGFβ” value was “significantly higher” and the “expression of VEGF” value is recorded as “significantly higher”. In addition, in data set [1] (setting [7]), the “expression of Ang2” value is listed as “high expressions”, the “expression of MMP-9” value was “high expressions”, the “expression of TGF-β” value is on record as “high expressions” and the “expression of VEGF” value is on record as “high expressions”. Also, in data set [1] (setting [8]), the “mRNA expression of hematoma capsule Ang1” value is “significantly higher” and the “mRNA expression of hematoma capsule VEGF” value is listed as “significantly higher”. Besides, in data set [1] (setting [9]), the Ang1 result is given as “significantly higher”, the “expression level of MMP-9” value is “significantly lower” and the “expression level of VEGF” value is reported as “significantly lower”. Moreover, the “Hematoma amount in the fourth week, average value” in data set [2] (atorvastatin alone) was 28.29 ± 29.47 mL and 28.29 mL. In data set [3], the “local TNF-α and IL-6 gene and protein levels in the hematoma capsule” value was “significantly reduce”.
Consider `C[C@@H]1C[C@H]2[C@@H]3CCC4=CC(=O)C=C[C@]4(C)[C@@]3(F)[C@@H](O)C[C@]2(C)[C@@]1(O)C(=O)CO` [dexamethasone], for which, in data set [2] (small dose dexamethasone alone), the “Reduced hematoma amount in the fourth week, average value” came to 24.71 mL; the “Hematoma amount in the fourth week, average value” is 50.86 ± 24.52 mL and 50.86 mL. Besides, the “patients with no therapeutic effect, transferred to surgical treatment” value in data set [2] (small dose dexamethasone alone, among the 15 patients) was 5 patients. Further, the “average hematoma absorption rate” value in data set [2] (small dose dexamethasone alone, fourth week / one month after administration) was 35%. For the same molecule, in data set [2] (small dose dexamethasone alone, oral, 0.75 mg 3x/day wk 1, 2x/day wk 2-3, 1x/day wk 4, individual patients (15)), the “Hematoma amount in the fourth week” value is 40.95 ml and 80.00 ml (2×) and 36.30 ml and 32.73 ml and 96.53 ml and 39.88 ml and 30.25 ml and 35.00 ml and 37.00 ml. Besides, the “Reduced hematoma amount in the fourth week” value in data set [2] (small dose dexamethasone alone, individual patients (15)) was 20.93 mL and 25.00 mL and 39.64 mL and 23.90 mL and 8.13 mL and 38.43 mL and 24.08 mL and 36.40 mL and 13.60 mL and 17.00 mL.
